Data on twelve molecules can be found in patent US7807701B2, “Dibenzylamine compounds and pharmaceutical use thereof” (Japan Tobacco Inc., priority 2002, dated 2010).

Experiment [1] concerns CETP. As to the kind of experiment: Inhibitory effect exo vivo on CETP activity in total plasma of normal hamster. To be noted: average values; for CETP activity (%) 4 (hr later): single oral dose 3 mg/kg, blood taken 4 hr after administration; for CETP activity (%) 2 (hr later): blood taken 2 hr after administration. As to the method:
Potassium bromide (KBr) was added to plasma (40 mL) of healthy subject and the mixture was adjusted to have a specific density d=1.125 g/mL. The mixture was subjected to density gradient centrifugation (227,000×g, 4° C., 17 hr) and a fraction showing a specific density of d>1.125 g/mL (HDL3 fraction) was harvested. The obtained fraction was dialyzed against PBS solution [10 mmol/L Na2HPO4; 10 mmol/L NaH2PO4; 0.15 mol/L NaCl; […] (pH 7.4)]. Then, tritium-labeled cholesterol (37 MBq) was dissolved in 95% ethanol, gradually added to the above-mentioned HDL3 fraction with stirring and incubated at 37° C. for 18 hr. [By this operation, tritium-labeled cholesterol was esterified by the action of lecithin acyl transferase (LCAT) present on the HDL3 surface and taken up into HDL3 as tritium-labeled cholesteryl ester ([^3H]CE)]. After incubation, KBr was added, the mixture was adjusted to have a specific density d=1.21 g/mL, subjected to density gradient centrifugation (227,000×g, 4° C., 17 hr) and a fraction of specific density […] was harvested. The obtained fraction was dialyzed against the aforementioned PBS solution to give HDL3 incorporating [^3H]CE ([^3H]CE-HDL3, specific density: 1.125<d<1.21, specific activity: 10,000 dpm/μL), which was used as a donor lipoprotein.
(§1) The compound of the present invention was suspended in 0.5% methyl cellulose solution and orally administered once to a healthy hamster with a plastic gavage needle. Blood was taken at 2 or 4 hr after the administration and CETP activity in plasma was measured according to the following method.
The donor lipoprotein obtained above was added to hamster plasma (100 μL) to prepare [^3H]CE-HDL3-containing plasma (ca. 1,000 dpm/μL). The [^3H]CE-HDL3-containing plasma was dispensed to two microtubes by 25 μL each, and one was incubated at 37° C. and the other was incubated at 4° C. for 4 hr each. After ice-cooling, TBS solution (50 μl) containing 1 mol/L magnesium chloride and 2% dextran sulfate was added to each microtube and the mixture was thoroughly stirred. After keeping at […] for 30 min, the mixture was centrifuged (10,000×g, 4° C., 20 min), and the radioactivity in the obtained supernatant (HDL fraction) was measured with a liquid scintillation counter. The radioactivity of the [^3H]CE-HDL3-containing plasma was measured with a liquid scintillation counter, and taken as the total radioactivity. The transfer rate of [^3H]CE was calculated from the following formula using the total radioactivity (Total count), radioactivity by 37° C. incubation (37° C. count) and radioactivity by 4° C. incubation (4° C. count) of the sample of each individual and taken as the CETP activity. CETP activity(transfer ratio (%))={[(4° C. count)−(37° C. count)]/(Total count)}×100
The CETP activity inhibitory ratio of each compound administration group based on the CETP activity of the solvent administration group as 100% was calculated from the following formula and expressed in %.
CETP activity inhibitory ratio (%)=100−[(CETP activity of each compound administration group)/(CETP activity of solvent administration group)×100]

Another experiment concerns HDL cholesterol. As to the kind of experiment: Blood HDL cholesterol increasing effect in normal hamster. The experiment is classed as in vivo. To be noted: single oral dose 3 mg/kg, versus solvent group, average values; for HDL cholesterol increase content (%) 4 (hr later): 4 hr after administration; for HDL cholesterol increase content (%) 8 (hr later): 8 hr after administration. As to the method:
as §1
To the plasma (40 μL) obtained from the above-mentioned animal at 4 or 8 hr after the administration was added 15% polyethylene glycol solution (40 μL) and the mixture was thoroughly stirred. After keeping at room temperature for 10 min, the mixture was centrifuged (10,000×g, 4° C., 20 min) and the cholesterol content (HDL cholesterol content) of the obtained supernatant (HDL fraction) was measured. The increase ratio of the HDL cholesterol content of each compound administration group when the HDL cholesterol content of the solvent administration group as 100% was calculated from the following formula and expressed in %. HDL cholesterol increase ratio(%)=[(HDL cholesterol content of each compound administration group/HDL cholesterol content of solvent administration group)×100]−100

Experiment [2] concerns the target T1, CETP (Homo sapiens, UniProt P11597).
T1 construct: The donor lipoprotein obtained above was added to plasma of healthy subject; from tissue; host or cells: whole plasma of healthy subject
T1 sequence (P11597 18-493): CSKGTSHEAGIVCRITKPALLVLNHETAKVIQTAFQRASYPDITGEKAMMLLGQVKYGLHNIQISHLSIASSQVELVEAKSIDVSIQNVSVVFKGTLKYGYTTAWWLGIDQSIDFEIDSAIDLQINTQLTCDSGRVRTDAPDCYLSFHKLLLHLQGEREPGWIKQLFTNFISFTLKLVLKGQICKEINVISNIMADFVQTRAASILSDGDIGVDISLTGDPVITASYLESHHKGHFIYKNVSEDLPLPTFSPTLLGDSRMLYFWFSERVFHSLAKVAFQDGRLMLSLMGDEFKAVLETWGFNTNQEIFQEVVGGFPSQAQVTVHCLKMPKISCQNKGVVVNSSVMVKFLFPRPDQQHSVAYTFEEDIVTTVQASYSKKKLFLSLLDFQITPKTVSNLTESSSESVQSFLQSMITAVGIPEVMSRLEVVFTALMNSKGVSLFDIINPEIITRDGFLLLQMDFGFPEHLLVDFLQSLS
As to the kind of experiment: Inhibitory effect in vitro on CETP activity in total plasma. To be noted: plasma of healthy subject with [3H]CE-HDL3, 37° C., 4 hr; average values. The experiment is classed as biochemical. Summed up:
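Healthy-donor plasma spiked with [3H]cholesteryl ester-labelled HDL3 (1,000 dpm/μL) was incubated with compound (DMF vehicle) for 4 hr at 37 °C or 4 °C. HDL was separated by MgCl2/dextran sulfate precipitation and supernatant radioactivity counted. IC50 is the concentration giving 50% inhibition of CETP activity.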

In the case of `CCCN(C[C@H]1CC[C@H](CC(=O)O)CC1)c1ccc(C(F)(F)F)cc1CN(Cc1cc(C(F)(F)F)cc(C(F)(F)F)c1)c1nnn(C)n1.Cl` [Example 154, trans-(4-{[N-(2-{[N′-[3,5-bis(trifluoromethyl)benzyl]-N′-(2-methyl-2H-tetrazol-5-yl)amino]methyl}-4-trifluoromethylphenyl)-N-propylamino]methyl}cyclohexyl)acetic acid hydrochloride], in the experiment on CETP [1], the “CETP activity (%) 4 (hr later)” value was 64.2%. Moreover, in the experiment with HDL cholesterol, the “HDL cholesterol increase content (%) 4 (hr later)” value is given as 13.3% and the “HDL cholesterol increase content (%) 8 (hr later)” value was found to be 22.4%.

On to `CCCN(C[C@H]1CC[C@H](CC(=O)O)CC1)c1ccc(OC(F)(F)F)cc1CN(Cc1cc(C(F)(F)F)cc(C(F)(F)F)c1)c1nnn(C)n1.Cl` [Example 158, trans-(4-{[N-(2-{[N′-[3,5-bis(trifluoromethyl)benzyl]-N′-(2-methyl-2H-tetrazol-5-yl)amino]methyl}-4-trifluoromethoxyphenyl)-N-propylamino]methyl}cyclohexyl)acetic acid hydrochloride], for which, in the experiment on CETP [1], the “CETP activity (%) 4 (hr later)” value was determined as 55.6%. In the experiment on HDL cholesterol, the “HDL cholesterol increase content (%) 4 (hr later)” value came to 14.8% and the “HDL cholesterol increase content (%) 8 (hr later)” value worked out at 23.7%.

Molecule `CCN(CCC(C)(C)CC(=O)O)c1cc2c(cc1CN(Cc1cc(C(F)(F)F)cc(C(F)(F)F)c1)c1nnn(C)n1)CCC2.Cl` [Example 92, 5-[N-(6-{[N′-[3,5-bis(trifluoromethyl)benzyl]-N′-(2-methyl-2H-tetrazol-5-yl)amino]methyl}indan-5-yl)-N-ethylamino]-3,3-dimethylpentanoic acid hydrochloride] had a 50% inhibitory concentration (IC50) on CETP [2] of 190 nM. In the experiment on CETP [1] (single oral dose 10 mg/kg), the “CETP activity (%) 2 (hr later)” value was found to be 46.9%.

On to `CCN(CCCCC(=O)OC)c1cc2c(cc1CN(Cc1cc(C(F)(F)F)cc(C(F)(F)F)c1)c1nnn(C)n1)CCC2.Cl` [Example 35, methyl 5-[N-(6-{[N′-[3,5-bis(trifluoromethyl)benzyl]-N′-(2-methyl-2H-tetrazol-5-yl)amino]methyl}indan-5-yl)-N-ethylamino]pentanoate hydrochloride], for which the IC50 against CETP [2] came out at 350 nM. Also, in the experiment on CETP [1] (single oral dose 30 mg/kg), the “CETP activity (%) 2 (hr later)” value amounted to 37.8%.

`CCN(C[C@H]1CC[C@H](C(=O)O)CC1)c1ccc(C(F)(F)F)cc1CN(Cc1cc(C(F)(F)F)cc(C(F)(F)F)c1)c1nnn(C)n1.Cl` [Example 96, trans-4-{[N-(2-{[N′-[3,5-bis(trifluoromethyl)benzyl]-N′-(2-methyl-2H-tetrazol-5-yl)amino]methyl}-4-trifluoromethylphenyl)-N-ethylamino]methyl}cyclohexanecarboxylic acid hydrochloride] displayed an IC50 against CETP [2] of 310 nM. In addition, the “CETP activity (%) 2 (hr later)” value in the experiment with CETP [1] (single oral dose 10 mg/kg) worked out at 41.1%.

In the case of `CCN(CCCCC(=O)OC)c1cc2c(cc1CN(Cc1cc(C(F)(F)F)cc(C(F)(F)F)c1)c1ccn(C)n1)CCC2.Cl` [Example 37, methyl 5-[N-(6-[{N′-[3,5-bis(trifluoromethyl)benzyl]-N′-(1-methyl-1H-pyrazol-3-yl)amino]methyl}indan-5-yl)-N-ethylamino]pentanoate hydrochloride], the IC50 on CETP [2] is 800 nM. For the same molecule, the “CETP activity (%) 2 (hr later)” value in the experiment with CETP [1] (single oral dose 30 mg/kg) worked out at 45.4%.

`CCN(CCCCCC(=O)O)c1cc2c(cc1CN(Cc1cc(C(F)(F)F)cc(C(F)(F)F)c1)c1nnn(C)n1)CCC2.Cl` [Example 91, 6-[N-(6-{[N′-[3,5-bis(trifluoromethyl)benzyl]-N′-(2-methyl-2H-tetrazol-5-yl)amino]methyl}indan-5-yl)-N-ethylamino]hexanoic acid hydrochloride]: on CETP [2], it took 560 nM to reach half-maximal inhibition (IC50). The “CETP activity (%) 2 (hr later)” value in the experiment with CETP [1] (single oral dose 10 mg/kg) came to 44.7%.

`CCN(CCCCC(=O)O)c1ccc(OC(F)(F)F)cc1CN(Cc1cc(C(F)(F)F)cc(C(F)(F)F)c1)c1nnn(C)n1.Cl` [Example 89, 5-[N-(2-{[N′-[3,5-bis(trifluoromethyl)benzyl]-N′-(2-methyl-2H-tetrazol-5-yl)amino]methyl}-4-trifluoromethoxyphenyl)-N-ethylamino]pentanoic acid hydrochloride] returned an IC50 at CETP [2] of 690 nM. Also, the “CETP activity (%) 2 (hr later)” value with CETP [1] (single oral dose 10 mg/kg) worked out at 77.7%.

At CETP [2], `CCN(C[C@H]1CC[C@H](C(=O)O)CC1)c1ccc(OC(F)(F)F)cc1CN(Cc1cc(C(F)(F)F)cc(C(F)(F)F)c1)c1nnn(C)n1.Cl` [Example 98, trans-4-[{N-(2-{[N′-[3,5-bis(trifluoromethyl)benzyl]-N′-(2-methyl-2H-tetrazol-5-yl)amino]methyl}-4-trifluoromethoxyphenyl)-N-ethylamino]methyl}cyclohexanecarboxylic acid hydrochloride] yielded an IC50 of 300 nM. In addition, the “CETP activity (%) 2 (hr later)” value in the experiment on CETP [1] (single oral dose 10 mg/kg) worked out at 43.3%.

As to `CCN(CCCCC(=O)O)c1cc2c(cc1CN(Cc1cc(C(F)(F)F)cc(C(F)(F)F)c1)c1nnn(C)n1)CCC2.Cl` [Example 38, 5-[N-(6-{[N′-[3,5-bis(trifluoromethyl)benzyl]-N′-(2-methyl-2H-tetrazol-5-yl)amino]methyl}indan-5-yl)-N-ethylamino]pentanoic acid hydrochloride], the IC50 at CETP [2] amounted to 470 nM. Also, in the experiment on CETP [1] (single oral dose 30 mg/kg), the “CETP activity (%) 2 (hr later)” value stood at 79.4%.

Take `CCN(CCCCC(=O)O)c1cc2c(cc1CN(Cc1cc(C(F)(F)F)cc(C(F)(F)F)c1)c1cc(C)no1)CCC2.Cl` [Example 40, 5-[N-(6-{[N′-[3,5-bis(trifluoromethyl)benzyl]-N′-(3-methylisoxazol-5-yl)amino]methyl}indan-5-yl)-N-ethylamino]pentanoic acid hydrochloride]: on CETP [2], the IC50 is 390 nM. Besides, the “CETP activity (%) 2 (hr later)” value with CETP [1] (single oral dose 30 mg/kg) is on record as 59.5%.

As to `CCN(CCC(C)(C)CC(=O)O)c1ccc(OC(F)(F)F)cc1CN(Cc1cc(C(F)(F)F)cc(C(F)(F)F)c1)c1noc(C)n1.Cl` [Example 108, 5-[N-(2-{[N′-[3,5-bis(trifluoromethyl)benzyl]-N′-(5-methyl-[1,2,4]oxadiazol-3-yl)amino]methyl}-4-trifluoromethoxyphenyl)-N-ethylamino]-3,3-dimethylpentanoic acid hydrochloride], inhibition against CETP [2] was half-maximal at 250 nM (IC50). In addition, in the experiment on CETP [1] (single oral dose 10 mg/kg), the “CETP activity (%) 2 (hr later)” value was found to be 53.8%.

The term IC50 denotes the point on the concentration scale where inhibition reaches its midpoint. High values mean a need for much substance, low ones inhibition by little substance.
